Legend:
[1] = CRC Handbook; cited from earlier work
[2] = Hydroxyapatite challenge of Ba-L complexes (GFAAS); type: physicochemical; settings: HAP suspension, pH 7.6, after 20 h
Procedure: HAP was suspended in solutions containing the complexes formed in situ (1.1 equiv L, 1.0 equiv Ba^2+) in pH 7.6 buffer, and the amount of Ba^2+ remaining in the liquid phase, reflecting intact Ba-L complex, was determined by graphite furnace atomic absorption spectroscopy (GFAAS). Whereas free Ba^2+ is adsorbed by HAP in less than 10 min, Ba-macropa and Ba-macropaquin respectively retained 82% and 68% of this ion after 20 h. […] This feature may be important for Ba^2+ chelation in industrial applications, such as scale dissolution, because numerous other metal ions are present during these processes. […]
More specifically, hydroxyapatite (HAP, Ca5(PO4)3(OH)) challenges were carried out in 500 mM Tris buffer. […] The concentrations of these stocks were verified by quantitative NMR (n=2 for each ligand) using two independently prepared standards of potassium hydrogen phthalate in D2O. […] The concentration of macroquin-SO3 was determined by UV-vis spectrophotometry from the average of two titrations with Ba^2+. […] The absorbance at 320 nm was monitored until spectral changes ceased, at which point [Ba^2+]=[L]. From the volume of titrant added, the concentration of the stock solution of macroquin-SO3 was calculated to be 8.17 mM, which was within 9% of the theoretical value of 8.96 mM based on mass. […]

Row | Compound | Ksp [1] | Ba^2+ remaining in the liquid phase (intact Ba-L complex) [2] [%]
1 | O=S(=O)([O-])[O-].[Ba+2] [BaSO4] | 1.08×10^−10 | –
2 | O=C([O-])c1cccc(CN2CCOCCOCCN(Cc3cccc(C(=O)[O-])n3)CCOCCOCC2)n1.[Ba+2] [Ba-macropa] | – | 82
